Data set [1] in a line: Metabolic stability in rat liver microsomes. It is filed as in vitro ADME. Particulars: calculated from liver microsome clearance. As to the method: Determination of Metabolic Stability in Human and Rat Liver Microsomes
The incubations were conducted with 2.4 ml of HLM solution (protein content 0.5 mg/ml), 30 μl of the test compound (final concentration 1 μM) and 0.6 ml of the cofactor mixture (=NADPH-generating system composed of 3 IU glucose-6-phosphate dehydrogenase, 14.6 mg glucose-6-phosphate, 1.2 mg NADP) at 37° C. in 100 mM phosphate buffer at pH 7.4. Samples were taken at 6 time points (2-60 min) and precipitated with an equal volume of methanol, and the recovery of the test substances used in the supernatant was determined by LC-MS/MS analysis. The half-life of substance degradation determined therefrom was used to calculate what is called the intrinsic clearance of the substance in the liver microsome preparation. […] In addition, under the assumptions that (i) absorption of the test substance is 100%, and (ii) the first pass is completely reflected by liver microsome metabolism, a maximum oral bioavailability (Fmax) was calculated.

The target of data set [2] is T1, human progesterone receptor A (Homo sapiens, UniProt P06401).
T1 construct: expressed in transfected cells; host or cells: SK-N-MC human neuroblastoma cells, stably transfected with pRChPR-A-neo and pMMTV-LUC
T1 sequence (P06401 1-769 isoform P06401-2): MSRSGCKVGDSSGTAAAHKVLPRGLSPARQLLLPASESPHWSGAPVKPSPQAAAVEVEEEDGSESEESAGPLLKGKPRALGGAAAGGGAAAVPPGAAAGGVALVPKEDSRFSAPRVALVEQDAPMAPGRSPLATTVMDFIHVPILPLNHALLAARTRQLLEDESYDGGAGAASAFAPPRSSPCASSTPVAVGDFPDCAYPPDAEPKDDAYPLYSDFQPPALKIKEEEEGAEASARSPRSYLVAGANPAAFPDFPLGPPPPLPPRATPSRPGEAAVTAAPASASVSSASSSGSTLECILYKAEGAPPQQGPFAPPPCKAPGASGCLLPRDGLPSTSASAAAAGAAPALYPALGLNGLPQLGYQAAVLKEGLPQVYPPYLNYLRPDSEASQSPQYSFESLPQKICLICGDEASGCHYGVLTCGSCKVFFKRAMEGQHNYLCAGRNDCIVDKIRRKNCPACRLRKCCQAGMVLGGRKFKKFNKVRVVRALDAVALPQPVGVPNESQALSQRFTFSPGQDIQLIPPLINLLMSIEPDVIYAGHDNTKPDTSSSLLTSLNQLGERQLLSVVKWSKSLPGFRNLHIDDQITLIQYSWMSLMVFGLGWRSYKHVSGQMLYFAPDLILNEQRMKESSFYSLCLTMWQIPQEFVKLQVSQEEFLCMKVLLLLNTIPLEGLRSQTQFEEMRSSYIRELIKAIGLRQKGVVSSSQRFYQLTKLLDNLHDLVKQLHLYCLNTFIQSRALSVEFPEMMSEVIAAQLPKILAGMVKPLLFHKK
In words: Progesterone receptor-antagonistic action in stably transfected SK-N-MC cells, MMTV-LUC reporter (PR-A). Particulars: antagonistic potency vs 0.1 nmol/l promegestone, 24 hours. It is filed as cell-based. The essentials: (§1)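 Stably transfected SK-N-MC cells express human PR-B or PR-A plus MMTV-LUC. For antagonism they were co-treated with 0.1 nmol/l promegestone and compound (0.01 nmol/l upward) for 24 hours. Luciferase in lysates was read as RLU and reported as % efficacy and IC50.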

Data set [3] has as its target T2, human progesterone receptor B (Homo sapiens, UniProt P06401).
T2 construct: expressed in transfected cells; host or cells: SK-N-MC human neuroblastoma cells, stably transfected with pRChPR-B-neo and pMMTV-LUC
T2 sequence (P06401 1-933): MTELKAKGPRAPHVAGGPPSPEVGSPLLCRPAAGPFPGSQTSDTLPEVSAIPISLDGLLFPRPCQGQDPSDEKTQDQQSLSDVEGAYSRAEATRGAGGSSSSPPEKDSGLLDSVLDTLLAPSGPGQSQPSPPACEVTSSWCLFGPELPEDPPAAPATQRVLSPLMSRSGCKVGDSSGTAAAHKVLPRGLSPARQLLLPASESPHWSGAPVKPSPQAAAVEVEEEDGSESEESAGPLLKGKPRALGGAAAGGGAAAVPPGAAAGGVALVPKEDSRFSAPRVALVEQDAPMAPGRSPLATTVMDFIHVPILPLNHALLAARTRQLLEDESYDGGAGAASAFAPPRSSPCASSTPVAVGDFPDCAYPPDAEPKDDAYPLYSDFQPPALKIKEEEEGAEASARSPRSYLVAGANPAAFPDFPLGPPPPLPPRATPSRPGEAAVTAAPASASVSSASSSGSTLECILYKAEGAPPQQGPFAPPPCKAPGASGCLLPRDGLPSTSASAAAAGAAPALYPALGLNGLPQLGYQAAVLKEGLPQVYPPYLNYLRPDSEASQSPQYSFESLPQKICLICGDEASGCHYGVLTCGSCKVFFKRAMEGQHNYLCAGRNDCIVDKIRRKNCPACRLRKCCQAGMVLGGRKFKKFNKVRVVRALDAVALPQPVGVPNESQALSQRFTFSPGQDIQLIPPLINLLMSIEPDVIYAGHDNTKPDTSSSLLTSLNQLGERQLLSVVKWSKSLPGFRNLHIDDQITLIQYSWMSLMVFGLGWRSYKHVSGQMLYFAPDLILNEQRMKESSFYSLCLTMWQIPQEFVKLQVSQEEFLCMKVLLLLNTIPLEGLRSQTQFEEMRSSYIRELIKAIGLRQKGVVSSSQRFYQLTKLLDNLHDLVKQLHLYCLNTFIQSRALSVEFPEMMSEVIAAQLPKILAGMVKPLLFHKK
In words: Progesterone receptor-antagonistic action in stably transfected SK-N-MC cells, MMTV-LUC reporter (PR-B). It is filed as cell-based. To be noted: antagonistic potency vs 0.1 nmol/l promegestone, 24 hours. The essentials:
as §1

The text below walks through data of patent publication US9206219B2, “17-hydroxy-17-pentafluorethyl-estra-4,9(10)-dien-11-aryl derivatives, methods for the production thereof and the use thereof for treating diseases” (Bayer Intellectual Property GmbH, priority 2009, dated 2015).

What is called IC50 is the concentration that inhibits the measured activity by half. Low readings indicate higher potency, high ones lower potency.

For the compound `C[C@]12C[C@H](c3ccc(CCc4ccccn4)cc3)C3=C4CCC(=O)C=C4CC[C@H]3[C@@H]1CC[C@@]2(O)C(F)(F)C(F)(F)F` [Example 2, (8S,11R,13S,14S,17S)-17-hydroxy-13-methyl-17-pentafluoroethyl-11-[4-(2-pyridin-2-ylethyl)phenyl]-1,2,6,7,8,11,12,13,14,15,16,17-dodecahydrocyclopenta[a]phenanthren-3-one], in data set [1], the “Predicted Fmax (maximum oral bioavailability)” value (from here on “Predicted Fmax”) is listed as 18%. Further, the values for the IC50 in data set [2] and in data set [3] were 0.095 nM and 0.11 nM, respectively.
Regarding `Cc1nc(CCc2ccc([C@H]3C[C@@]4(C)[C@@H](CC[C@@]4(O)C(F)(F)C(F)(F)F)[C@@H]4CCC5=CC(=O)CCC5=C43)cc2)cs1` [Example 3, (8S,11R,13S,14S,17S)-17-hydroxy-13-methyl-11-{4-[2-(2-methylthiazol-4-yl)ethyl]phenyl}-17-pentafluoroethyl-1,2,6,7,8,11,12,13,14,15,16,17-dodecahydrocyclopenta[a]phenanthren-3-one], in data set [1], the “Predicted Fmax” value is recorded as 15%. In addition, the IC50 in data set [2] was determined as 0.09 nM; in data set [3], 0.04 nM.
`C[C@]12C[C@H](c3ccc(CCc4cccnc4)cc3)C3=C4CCC(=O)C=C4CC[C@H]3[C@@H]1CC[C@@]2(O)C(F)(F)C(F)(F)F` [Example 7, (8S,11R,13S,14S,17S)-17-hydroxy-13-methyl-17-pentafluoroethyl-11-[4-(2-pyridin-3-ylethyl)phenyl]-1,2,6,7,8,11,12,13,14,15,16,17-dodecahydrocyclopenta[a]phenanthren-3-one]: the “Predicted Fmax” value in data set [1] is 20%. The IC50 in data set [2] was determined as 0.08 nM; in data set [3], 0.09 nM.
With `C[C@]12C[C@H](c3ccc(CCc4ccncc4)cc3)C3=C4CCC(=O)C=C4CC[C@H]3[C@@H]1CC[C@@]2(O)C(F)(F)C(F)(F)F` [Example 8, (8S,11R,13S,14S,17S)-17-hydroxy-13-methyl-17-pentafluoroethyl-11-[4-(2-pyridin-4-ylethyl)phenyl]-1,2,6,7,8,11,12,13,14,15,16,17-dodecahydrocyclopenta[a]phenanthren-3-one], the “Predicted Fmax” value in data set [1] is listed as 19%. For the same compound, the IC50 turned out to be 0.08 nM in data set [2] and 0.09 nM in data set [3].
With `C[C@]12C[C@H](c3ccc(CCC#N)cc3)C3=C4CCC(=O)C=C4CC[C@H]3[C@@H]1CC[C@@]2(O)C(F)(F)C(F)(F)F` [Example 9, 3-[4-((8S,11R,13S,14S,17S)-17-hydroxy-13-methyl-3-oxo-17-pentafluoroethyl-2,3,6,7,8,11,12,13,14,15,16,17-dodecahydro-1H-cyclopenta[a]phenanthren-11-yl)phenyl]propionitrile], the “Predicted Fmax” value in data set [1] was 4.9%. For the same compound, the 50% inhibitory concentration (IC50) was determined as 0.06 nM in data set [2] and 0.1 nM in data set [3].
With `C[C@]12C[C@H](c3ccc(COC(=O)Nc4ccc(F)cc4)cc3)C3=C4CCC(=O)C=C4CC[C@H]3[C@@H]1CC[C@@]2(O)C(F)(F)C(F)(F)F` [Example 49, (4-fluorophenyl)carbamic acid 4-((8S,11R,13S,14S,17S)-17-hydroxy-13-methyl-3-oxo-17-pentafluoroethyl-2,3,6,7,8,11,12,13,14,15,16,17-dodecahydro-1H-cyclopenta[a]phenanthren-11-yl)benzyl ester], the values for the IC50 in data set [2] and in data set [3] were 0.09 nM and 0.1 nM, respectively.
`C[C@]12C[C@H](c3ccc(COC(=O)Nc4ccc(Cl)cc4)cc3)C3=C4CCC(=O)C=C4CC[C@H]3[C@@H]1CC[C@@]2(O)C(F)(F)C(F)(F)F` [Example 50, (4-chlorophenyl)carbamic acid 4-((8S,11R,13S,14S,17S)-17-hydroxy-13-methyl-3-oxo-17-pentafluoroethyl-2,3,6,7,8,11,12,13,14,15,16,17-dodecahydro-1H-cyclopenta[a]phenanthren-11-yl)benzyl ester]: the IC50 in data set [2] is 0.1 nM; in data set [3] it was 0.4 nM.
With `CCOC(=O)c1ccc(NC(=O)OCc2ccc([C@H]3C[C@@]4(C)[C@@H](CC[C@@]4(O)C(F)(F)C(F)(F)F)[C@@H]4CCC5=CC(=O)CCC5=C43)cc2)cc1` [Example 52, 4-[4-((8S,11R,13S,14S,17S)-17-hydroxy-13-methyl-3-oxo-17-pentafluoroethyl-2,3,6,7,8,11,12,13,14,15,16,17-dodecahydro-1H-cyclopenta[a]phenanthren-11-yl)benzyloxycarbonylamino]benzoic acid ethyl ester], the IC50 in data set [2] and in data set [3] was 0.1 nM each time.
On to `C[C@]12C[C@H](c3ccc(CNC(=O)c4cccnc4)cc3)C3=C4CCC(=O)C=C4CC[C@H]3[C@@H]1CC[C@@]2(O)C(F)(F)C(F)(F)F` [Example 54, N-[4-((8S,11R,13S,14S,17S)-17-hydroxy-13-methyl-3-oxo-17-pentafluoroethyl-2,3,6,7,8,11,12,13,14,15,16,17-dodecahydro-1H-cyclopenta[a]phenanthren-11-yl)benzyl]nicotinamide], for which the results for the half-maximal inhibitory concentration (IC50) in data set [2] and in data set [3] were 0.3 nM and 0.1 nM, respectively.
As for `C[C@]12C[C@H](c3ccc(COC(=O)NCCC(=O)O)cc3)C3=C4CCC(=O)C=C4CC[C@H]3[C@@H]1CC[C@@]2(O)C(F)(F)C(F)(F)F` [Example 55, 3-[4-((8S,11R,13S,14S,17S)-17-hydroxy-13-methyl-3-oxo-17-pentafluoroethyl-2,3,6,7,8,11,12,13,14,15,16,17-dodecahydro-1H-cyclopenta[a]phenanthren-11-yl)benzyloxycarbonylamino]propionic acid], the IC50 amounted to 8 nM in data set [2] and 10 nM in data set [3].
In the case of `C[C@]12C[C@H](c3ccc(COC(=O)NCc4ccccc4)cc3)C3=C4CCC(=O)C=C4CC[C@H]3[C@@H]1CC[C@@]2(O)C(F)(F)C(F)(F)F` [Example 56, benzylcarbamic acid 4-((8S,11R,13S,14S,17S)-17-hydroxy-13-methyl-3-oxo-17-pentafluoroethyl-2,3,6,7,8,11,12,13,14,15,16,17-dodecahydro-1H-cyclopenta[a]phenanthren-11-yl)benzyl ester], the IC50 in data set [2] worked out at 0.2 nM; in data set [3] it was 0.3 nM.
Turning to `CCOC(=O)CCNC(=O)OCc1ccc([C@H]2C[C@@]3(C)[C@@H](CC[C@@]3(O)C(F)(F)C(F)(F)F)[C@@H]3CCC4=CC(=O)CCC4=C32)cc1` [Example 57, 3-[4-((8S,11R,13S,14S,17S)-17-hydroxy-13-methyl-3-oxo-17-pentafluoroethyl-2,3,6,7,8,11,12,13,14,15,16,17-dodecahydro-1H-cyclopenta[a]phenanthren-11-yl)benzyloxycarbonylamino]propionic acid ethyl ester], the IC50 in data set [2] and in data set [3] was 0.1 nM each time.
